The values below come from US20220073496A1, “NOVEL QUINOLINE DERIVATIVE INHIBITOR” (Nanjing Transthera Biosciences Co., Ltd., priority 2018, published 2022).

In one data set the target is T1, Axl (h) (Homo sapiens, UniProt P30530).
T1 construct: purchased
T1 sequence (P30530 26-894): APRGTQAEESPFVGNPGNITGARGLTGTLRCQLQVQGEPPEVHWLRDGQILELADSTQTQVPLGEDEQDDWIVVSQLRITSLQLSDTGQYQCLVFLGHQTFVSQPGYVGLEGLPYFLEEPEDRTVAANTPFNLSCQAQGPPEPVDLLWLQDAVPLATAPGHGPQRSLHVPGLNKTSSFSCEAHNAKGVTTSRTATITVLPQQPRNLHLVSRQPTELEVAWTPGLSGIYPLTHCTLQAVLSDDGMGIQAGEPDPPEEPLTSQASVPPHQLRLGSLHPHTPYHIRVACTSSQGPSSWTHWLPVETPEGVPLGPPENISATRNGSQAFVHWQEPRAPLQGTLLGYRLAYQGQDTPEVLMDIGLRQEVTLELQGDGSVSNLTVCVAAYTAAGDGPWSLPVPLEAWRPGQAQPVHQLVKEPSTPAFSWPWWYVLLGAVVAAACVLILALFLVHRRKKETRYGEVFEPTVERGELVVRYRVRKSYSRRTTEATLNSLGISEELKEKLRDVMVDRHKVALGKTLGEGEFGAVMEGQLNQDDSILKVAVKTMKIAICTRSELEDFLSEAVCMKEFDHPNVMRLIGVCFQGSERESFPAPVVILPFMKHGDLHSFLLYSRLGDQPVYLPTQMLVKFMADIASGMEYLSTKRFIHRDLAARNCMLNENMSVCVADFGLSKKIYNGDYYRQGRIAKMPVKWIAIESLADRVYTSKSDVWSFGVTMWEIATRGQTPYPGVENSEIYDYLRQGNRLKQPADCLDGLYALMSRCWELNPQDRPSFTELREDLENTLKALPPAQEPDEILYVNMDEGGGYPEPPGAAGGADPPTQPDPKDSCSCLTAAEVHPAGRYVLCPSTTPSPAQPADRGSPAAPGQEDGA
Kind of data set: Enzymatic activity test, Axl (h). Format: biochemical. The conditions noted are these: 10 μM [γ-33P]-ATP, 40 minutes, room temperature. Here is the method:
Assay 3: Enzymatic Activity Test of the Compounds of the Present Invention
(§1) Test substances: the compounds of the present invention, wherein the structures and preparations thereof were as described above.
(1) Preparation of the Compound Stock Solution
The compound was dissolved in 100% DMSO to prepare a stock solution with a maximum concentration of 500 μM.
(2) Preparation of the Compound Working Solution
The compound stock solution was diluted to final concentrations of 500, 150, 50, 15, 5, 1.5, 0.5, 0.15 and 0.05 μM to become the compound working solutions (50×).
(3) Preparation of Different Enzyme Reaction Solutions
The Axl (h) enzyme was dissolved in 8 mM MOPS (pH 7.0), 0.2 mM EDTA, and 250 μM KKSRGDYMTMQIG to prepare an enzyme solution having a final concentration of 1.7 nM. The enzymatic reaction was activated by using 10 mM magnesium acetate and 10 μM [γ-^33P]-ATP to form an Mg/ATP mixed solution.
In a 384-well plate, the compound working solution was added to final concentrations of 10000, 3000, 1000, 300, 100, 30, 10, 3, and 1 nM. Then different enzyme reaction solutions prepared according to the above conditions were added. The incubation was carried out for 40 minutes at room temperature. The test was terminated by the addition of a 0.5% phosphoric acid solution. 10 μL of the reaction solution was taken and dropped to the P30 filter paper. The filter paper was washed 4 times with 0.425% phosphoric acid solution and once with methanol, and then placed on a scintillation counter. The […] IC50 values were calculated using GraphPad 5.0 software.

Data set [1] can be described thus: Stability in liver microsome of mice. Format: in vitro ADME. The conditions noted are these: liver microsomes; Mouse liver microsome 0.5 mg protein/mL, compound 1 μM, 37° C. Here is the method: (§2) Assay 1: Stability assessment of the compounds of the present invention in liver microsome of mice and dogs
as §1
(§3) The composition of the incubation system:
(§4) Preparation of Test Substances:
(§5) An appropriate amount of the compound was accurately weighed and dissolved in DMSO to prepare a 5.0 mM stock solution. The 5.0 mM stock solution was diluted to 1.0 mM with DMSO, and finally diluted with water to a 10 μM test substance working solution for use (the DMSO content in the reaction system was 0.1%).
(§6) (1) The liver microsome (20 mg protein/mL) was taken out from the −80° C. refrigerator, pre-incubated at 37° C. with a water-bathing constant temperature vibrator for 3 minutes, and melted for use.
(§7) (2) A mixed solution of the incubation system (excluding compounds and β-NADPH) according to the above “composition of the incubation system” for the assay was prepared, and pre-incubated at 37° C. with a water-bathing constant temperature vibrator for 2 minutes.
(§8) (3) Control group (excluding β-NADPH): 30 μL of water and 30 μL of compound working solution (10 μM) were added to 240 μL of the mixed solution of the incubation system of step (2), and vortexed for 30 seconds to mix well. The total reaction volume was 300 μL. A duplicate sample was prepared. The sample was incubated at 37° C. with a water-bathing constant temperature vibrator. The timekeeping began and the sampling time points were set at 0 minute and 60 minutes.
(§9) (4) Sample group: 70 μL of β-NADPH solution (10 mM) and 70 μL of compound working solution (10 μM) were added to 560 μL of the mixed solution of step (2). The total reaction volume was 700 μL. The resulting mixture was vortexed for 30 seconds to mix well. A duplicate sample was prepared. The sample was incubated at 37° C. with a water-bathing constant temperature vibrator. The timekeeping began and the sampling time points were set at 0 minute, 5 minutes, 10 minutes, 20 minutes, 30 minutes, and 60 minutes after timekeeping.
(§10) (5) After vortexing for 3 minutes, the sample was centrifuged at 4000 rpm for 10 minutes.
(§11) (6) 50 μL of the supernatant was taken and 150 μL of water was added. The resulting mixture was vortexed to mix well, and analyzed by LC/MS/MS.
(§12) The half-life (t1/2) and clearance rate (Cl) were calculated using the following first-order kinetic formula:
(§13) Vd=1/protein content in liver microsome
(§14) Note: k was the slope of the logarithm of the remaining amount of the compound versus time, and Vd was the apparent distribution volume.
On the technique in general: Microsomes from liver hold many membrane-bound enzymes, among them those of drug oxidation.

A short description of data set [2]: Stability in liver microsome of dogs. Format: in vitro ADME. The note with it: Dog liver microsome 0.5 mg protein/mL, compound 1 μM, 37° C.; for half-life at 1 μM / microsomal CLint at 1 μM: liver microsomes. The protocol: as §2, §1, §3, §4, §5, §6, §7, §8, §9, §10, §11, §12, §13, §14

Turning to `COc1cc2nccc(Oc3cnc(NC(=O)c4nn(C5CC5)cc(-c5ccc(F)cc5)c4=O)nc3)c2cc1OC` [Compound 33], 2 nM corresponded to half-maximal inhibition against Axl (h) (IC50). In data set [1], the half-life (commonly how long it takes for the measured level to halve) at 1 μM stood at 2.75 h and the intrinsic clearance (microsomal CLint) (in general, a measure of how fast metabolising enzymes remove a compound, apart from limits set by blood flow) at 1 μM came to 8.4 µL/min/mg. Further, the t1/2 entry in data set [2] is listed as “→∞”.

As for `COc1cc2nccc(Oc3ncc(NC(=O)c4cn(C(C)C)nc(-c5ccc(F)cc5)c4=O)cn3)c2cc1OC` [Compound 40, N-(2-((6,7-dimethoxyquinolin-4-yl)oxy)pyrimidine-5-yl)-6-(4-fluorophenyl)-2-isopropyl-5-oxo-2,5-dihydropyridazine-4-carboxamide], the 50% inhibitory concentration (IC50) (commonly the concentration that inhibits the measured activity by half) at Axl (h) worked out at 4 nM. In data set [1], this compound gave a half-life at 1 μM of 8.88 h and an intrinsic metabolic clearance (microsomal CLint) at 1 μM of 2.6 µL/min/mg. The t1/2 result in data set [2] is “→∞”.

Compound `COc1cc2nccc(Oc3ncc(NC(=O)c4nn(C5CC5)cc(-c5ccc(F)cc5)c4=O)cn3)c2cc1OC` [Compound 37, 1-cyclopropyl-N-(2-((6,7-dimethoxyquinolin-4-yl)oxy)pyrimidine-5-yl)-5-para-fluorophenyl-4-oxo-1,4-dihydropyridazine-3-carboxamide] returned an IC50 at Axl (h) of 2 nM. In data set [1], this compound displayed a half-life at 1 μM of 8.88 h and a microsomal CLint at 1 μM of 2.6 µL/min/mg. Further, in data set [2], the half-life at 1 μM is 2.82 h and the intrinsic metabolic clearance (microsomal CLint) at 1 μM amounted to 8.2 µL/min/mg.

For the compound `COc1cc2nccc(Oc3ccc(NC(=O)c4nn(C(C)C)cc(-c5ccc(F)cc5)c4=O)cn3)c2cc1OC` [Compound 29, N-(6-((6,7-dimethoxyquinolin-4-yl)oxy)pyridin-3-yl)-1-isopropyl-4-oxo-5-para-fluorophenyl-1,4-dihydropyridazine-3-carboxamide], the IC50 against Axl (h) was determined as 5 nM. For the same compound, in data set [1], the half-life at 1 μM is 3.22 h and the microsomal CLint at 1 μM was determined as 7.2 µL/min/mg. Also, in data set [2], the half-life at 1 μM amounted to 2.18 h and the microsomal CLint at 1 μM worked out at 10.6 µL/min/mg.

In turn, `COc1cc2nccc(Oc3ccc(NC(=O)c4nn(C5CC5)cc(-c5ccc(F)cc5)c4=O)nc3)c2cc1OC` [Compound 31] returned an IC50 against Axl (h) of 4 nM. In data set [1], the half-life at 1 μM turned out to be 14.4 h and the intrinsic metabolic clearance (microsomal CLint) at 1 μM came to 1.6 µL/min/mg. The t1/2 entry in data set [2] is on record as “→∞”.

In the case of `COc1cc2nccc(Oc3ccc(NC(=O)c4nn(C5CC5)cc(-c5ccc(F)cc5)c4=O)cn3)c2cc1OC` [Compound 36], on Axl (h), the half-inhibitory concentration (IC50) was 3 nM. Moreover, the half-life at 1 μM was found to be 5.02 h in data set [1] and 1.93 h in data set [2]. Besides, the intrinsic clearance (microsomal CLint) at 1 μM in data set [1] worked out at 4.6 µL/min/mg; in data set [2], 12 µL/min/mg.

`COc1cc2nccc(Oc3cnc(NC(=O)c4cn(C(C)C)cc(-c5ccc(F)cc5)c4=O)nc3)c2cc1OC` [Compound 20, N-(5-((6,7-dimethoxyquinolin-4-y)oxy)pyrimidine-2-yl)-5-(4-fluorophenyl)-1-isopropyl-4-oxo-1,4-dihydropyridin-3-carboxamide] registered a half-inhibitory concentration (IC50) at Axl (h) of 17 nM. In addition, in data set [1], the half-life at 1 μM was determined as 5.5 h and the intrinsic metabolic clearance (microsomal CLint) at 1 μM was 4.2 µL/min/mg. In data set [2], this compound showed a half-life at 1 μM of 6.08 h and a microsomal CLint at 1 μM of 3.8 µL/min/mg.

`COc1cc2nccc(Oc3cnc(NC(=O)c4cn(C(C)C)nc(-c5ccc(F)cc5)c4=O)nc3)c2cc1OC` [Compound 39, N-(5-((6,7-dimethoxyquinolin-4-yl)oxy)pyrimidine-2-yl)-6-(4-fluorophenyl)-2-isopropyl-5-oxo-2,5-dihydropyridazine-4-carboxamide] registered an IC50 against Axl (h) of 4 nM. Moreover, in data set [1], the half-life at 1 μM was determined as 57.8 h and the intrinsic metabolic clearance (microsomal CLint) at 1 μM amounted to 4 µL/min/mg. The t1/2 result in data set [2] is listed as “→∞”.

On to `COc1cc2nccc(Oc3ccc(NC(=O)c4cn(C(C)C)cc(-c5ccc(C)cc5)c4=O)nc3)c2cc1OC` [Compound 1, N-(5-((6,7-dimethoxyquinolin-4-yl)oxy)pyridin-2-yl)-1-isopropyl-4-oxo-5-p-tolyl-1,4-dihydropyridin-3-carboxamide], for which the midpoint of inhibition at Axl (h), the IC50, lay at 17 nM. For the same compound, in data set [1], the half-life at 1 μM is 1.27 h and the microsomal CLint at 1 μM is 18.2 µL/min/mg. In data set [2], this compound yielded a half-life at 1 μM of 0.21 h and a microsomal CLint at 1 μM of 110 µL/min/mg.
